EP2768830B1, “APOPTOSIS-INDUCING AGENTS FOR THE TREATMENT OF CANCER AND IMMUNE AND AUTOIMMUNE DISEASES” (AbbVie Inc., priority 2011, dated 2013)
Like-named read-outs stand apart in the source and are kept apart here.

Legend:
[1] = system: mouse FL5.12 cells transfected with Bcl-XL; assay: FL5.12 cellular assay (cell viability, CellTiter-Glo); format: cell-based; settings: FL5.12 cells transfected with Bcl-XL, IL-3-depleted, 3% FBS assay media, 24 hours, CellTiter-Glo, read-out: FL5.12 Bcl-xL, - IL3, EC 50;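 further: each EC50 determination derived from duplicate measurements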
GST-Bcl-xL = GST-Bcl-xL (Homo sapiens, UniProt Q07817); settings: read-out: TR-FRET binding Bcl-xL Ki
Sequence of GST-Bcl-xL (Q07817 whole entry): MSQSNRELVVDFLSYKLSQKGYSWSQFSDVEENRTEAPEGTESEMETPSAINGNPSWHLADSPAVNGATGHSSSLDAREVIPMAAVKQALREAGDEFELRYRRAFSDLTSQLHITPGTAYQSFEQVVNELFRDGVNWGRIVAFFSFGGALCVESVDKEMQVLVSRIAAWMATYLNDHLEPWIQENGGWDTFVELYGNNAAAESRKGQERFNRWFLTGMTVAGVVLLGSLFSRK

For `Cc1c(OC2CCCC(C)(C)C2)cccc1-c1ccc(N2CCc3cccc(C(=O)Nc4nc5ccccc5s4)c3C2)nc1C(=O)O` (stereo not drawn) [Example 121, 6-[8-(1,3-benzothiazol-2-ylcarbamoyl)-3,4-dihydroisoquinolin-2(1H)-yl]-3-{3-[(3,3-dimethylcyclohexyl)oxy]-2-methylphenyl}pyridine-2-carboxylic acid], the EC50 ([1]; Mus musculus) was 82 nM and the Ki (GST-Bcl-xL) was 0.1 nM.
`O=C(Nc1nc2ccccc2s1)c1cccc2c1CN(c1ccc(-c3cn(Cc4ccccc4)nn3)c(C(=O)O)n1)CC2` [Example 122, 6-[8-(1,3-benzothiazol-2-ylcarbamoyl)-3,4-dihydroisoquinolin-2(1H)-yl]-3-(1-benzyl-1H-1,2,3-triazol-4-yl)pyridine-2-carboxylic acid] was tested, and the EC50 ([1]; Mus musculus) was > 1000 nM and the Ki (GST-Bcl-xL) was 117 nM.
With `CCOC(=O)c1cc(-c2ccc(N3CCc4cccc(C(=O)Nc5nc6ccccc6s5)c4C3)nc2C(=O)O)c(C)n1Cc1ccccc1` [Example 123, 6-[8-(1,3-benzothiazol-2-ylcarbamoyl)-3,4-dihydroisoquinolin-2(1H)-yl]-3-[1-benzyl-5-(ethoxycarbonyl)-2-methyl-1H-pyrrol-3-yl]pyridine-2-carboxylic acid] the EC50 ([1]; Mus musculus) was 16 nM and the Ki (GST-Bcl-xL) was < 0.1 nM.
In the case of `Cc1c(-c2ccc(N3CCc4cccc(C(=O)Nc5nc6ccccc6s5)c4C3)nc2C(=O)O)cc(C(=O)O)n1Cc1ccccc1` [Example 124, 6-[8-(1,3-benzothiazol-2-ylcarbamoyl)-3,4-dihydroisoquinolin-2(1H)-yl]-3-(1-benzyl-5-carboxy-2-methyl-1H-pyrrol-3-yl)pyridine-2-carboxylic acid], the EC50 ([1]; Mus musculus) is reported as 57 nM and the Ki (GST-Bcl-xL) is reported as < 0.1 nM.
`Cc1ccc(S(=O)(=O)n2ccc(-c3ccc(N4CCc5cccc(C(=O)Nc6nc7ccccc7s6)c5C4)nc3C(=O)O)c2)cc1` [Example 126, 6-[8-(1,3-benzothiazol-2-ylcarbamoyl)-3,4-dihydroisoquinolin-2(1H)-yl]-3-{1-[(4-methylphenyl)sulfonyl]-1H-pyrrol-3-yl}pyridine-2-carboxylic acid] was tested, and the EC50 ([1]; Mus musculus) was > 1000 nM and the Ki (GST-Bcl-xL) was 47 nM.
In the case of `O=C(Nc1nc2ccccc2s1)c1cccc2c1CN(c1ccc(-c3ccn(C(=O)c4ccccc4)c3)c(C(=O)O)n1)CC2` [Example 127, 6-[8-(1,3-benzothiazol-2-ylcarbamoyl)-3,4-dihydroisoquinolin-2(1H)-yl]-3-(1-benzoyl-1H-pyrrol-3-yl)pyridine-2-carboxylic acid], the EC50 ([1]; Mus musculus) is reported as > 1000 nM and the Ki (GST-Bcl-xL) is reported as 2 nM.
In the case of `O=C(Nc1nc2ccccc2s1)c1cccc2c1CN(c1ccc(-c3ccn(S(=O)(=O)c4ccccc4)c3)c(C(=O)O)n1)CC2` [Example 128, 6-[8-(1,3-benzothiazol-2-ylcarbamoyl)-3,4-dihydroisoquinolin-2(1H)-yl]-3-[1-(phenylsulfonyl)-1H-pyrrol-3-yl]pyridine-2-carboxylic acid], the EC50 ([1]; Mus musculus) is reported as > 1000 nM and the Ki (GST-Bcl-xL) is reported as 7 nM.
`Cc1c(-c2ccc(N3CCc4cccc(C(=O)Nc5nc6ccccc6s5)c4C3)nc2C(=O)O)cc(C#N)n1Cc1ccccc1` [Example 129, 6-[8-(1,3-benzothiazol-2-ylcarbamoyl)-3,4-dihydroisoquinolin-2(1H)-yl]-3-(1-benzyl-5-cyano-2-methyl-1H-pyrrol-3-yl)pyridine-2-carboxylic acid] was tested, and the EC50 ([1]; Mus musculus) was 18 nM and the Ki (GST-Bcl-xL) was < 0.1 nM.
`Cc1c(-c2ccc(N3CCc4cccc(C(=O)Nc5nc6ccccc6s5)c4C3)nc2C(=O)O)cc(C#N)n1CC1CCCCC1` [Example 130, 6-[8-(1,3-benzothiazol-2-ylcarbamoyl)-3,4-dihydroisoquinolin-2(1H)-yl]-3-[5-cyano-1-(cyclohexylmethyl)-2-methyl-1H-pyrrol-3-yl]pyridine-2-carboxylic acid] was tested, and the EC50 ([1]; Mus musculus) was 30 nM and the Ki (GST-Bcl-xL) was < 0.1 nM.
With `COCCC1(Cn2ncc(-c3ccc(N4CCc5cccc(C(=O)Nc6nc7ccccc7s6)c5C4)nc3C(=O)O)c2C)CCCCCC1` [Example 134, 6-[8-(1,3-benzothiazol-2-ylcarbamoyl)-3,4-dihydroisoquinolin-2(1H)-yl]-3-(1-{[1-(2-methoxyethyl)cycloheptyl]methyl}-5-methyl-1H-pyrazol-4-yl)pyridine-2-carboxylic acid] the EC50 ([1]; Mus musculus) was 0.9 nM and the Ki (GST-Bcl-xL) was < 0.1 nM.
In the case of `O=C(Nc1nc2ccccc2s1)c1cccc2c1CN(c1ccc(-c3cnn(CC4CCNCC4)c3)c(C(=O)O)n1)CC2` [Example 135, 6-[8-(1,3-benzothiazol-2-ylcarbamoyl)-3,4-dihydroisoquinolin-2(1H)-yl]-3-[1-(piperidin-4-ylmethyl)-1H-pyrazol-4-yl]pyridine-2-carboxylic acid], the EC50 ([1]; Mus musculus) is reported as > 1000 nM and the Ki (GST-Bcl-xL) is reported as 78 nM.
With `O=C(Nc1nc2ccccc2s1)c1cccc2c1CN(c1ccc(-c3ccc4c(c3)CCN(Cc3ccccn3)C4)c(C(=O)O)n1)CC2` [Example 136, 6-[8-(1,3-benzothiazol-2-ylcarbamoyl)-3,4-dihydroisoquinolin-2(1H)-yl]-3-[2-(pyridin-2-ylmethyl)-1,2,3,4-tetrahydroisoquinolin-6-yl]pyridine-2-carboxylic acid] the EC50 ([1]; Mus musculus) was > 1000 nM and the Ki (GST-Bcl-xL) was 1.4 nM.
For `Cc1c(-c2ccc(N3CCc4cccc(C(=O)Nc5nc6ccccc6s5)c4C3)nc2C(=O)O)ccnc1OC1CCCCC1` [Example 138, 6-[8-(1,3-benzothiazol-2-ylcarbamoyl)-3,4-dihydroisoquinolin-2(1H)-yl]-2'-(cyclohexyloxy)-3'-methyl-3,4'-bipyridine-2-carboxylic acid], the EC50 ([1]; Mus musculus) was > 1000 nM and the Ki (GST-Bcl-xL) was < 0.1 nM.
In the case of `O=C(Nc1nc2ccccc2s1)c1cccc2c1CN(c1ccc(-c3ccnc(OC4CCCCC4)c3)c(C(=O)O)n1)CC2` [Example 139, 6-[8-(1,3-benzothiazol-2-ylcarbamoyl)-3,4-dihydroisoquinolin-2(1H)-yl]-2'-(cyclohexyloxy)-3,4'-bipyridine-2-carboxylic acid], the EC50 ([1]; Mus musculus) is reported as > 1000 nM and the Ki (GST-Bcl-xL) is reported as 0.4 nM.
`O=C(Nc1nc2ccccc2s1)c1cccc2c1CN(c1ccc(-c3ccnc(Oc4ccccc4)c3)c(C(=O)O)n1)CC2` [Example 140, 6-[8-(1,3-benzothiazol-2-ylcarbamoyl)-3,4-dihydroisoquinolin-2(1H)-yl]-2'-phenoxy-3,4'-bipyridine-2-carboxylic acid] was tested, and the EC50 ([1]; Mus musculus) was > 1000 nM and the Ki (GST-Bcl-xL) was 2.3 nM.
`O=C(Nc1nc2ccccc2s1)c1cccc2c1CN(c1ccc(-c3cn(Cc4ccccc4)c4ncccc34)c(C(=O)O)n1)CC2` [Example 141, 6-[8-(1,3-benzothiazol-2-ylcarbamoyl)-3,4-dihydroisoquinolin-2(1H)-yl]-3-(1-benzyl-1H-pyrrolo[2,3-b]pyridin-3-yl)pyridine-2-carboxylic acid] showed an EC50 ([1]; Mus musculus) of 433 nM and a Ki (GST-Bcl-xL) of 1 nM.
`Cc1c(-c2ccc(N3CCc4cccc(C(=O)Nc5nc6ccccc6s5)c4C3)nc2C(=O)O)ccnc1Oc1ccccc1` [Example 142, 6-[8-(1,3-benzothiazol-2-ylcarbamoyl)-3,4-dihydroisoquinolin-2(1H)-yl]-3'-methyl-2'-phenoxy-3,4'-bipyridine-2-carboxylic acid] was tested, and the EC50 ([1]; Mus musculus) was > 1000 nM and the Ki (GST-Bcl-xL) was 0.5 nM.
`Cc1c(-c2ccc(N3CCc4cccc(C(=O)Nc5nc6ccccc6s5)c4C3)nc2C(=O)O)ccnc1N(C)c1ccccc1` [Example 143, 6-[8-(1,3-benzothiazol-2-ylcarbamoyl)-3,4-dihydroisoquinolin-2(1H)-yl]-3'-methyl-2'-[methyl(phenyl)amino]-3,4'-bipyridine-2-carboxylic acid] was tested, and the EC50 ([1]; Mus musculus) was 19 nM and the Ki (GST-Bcl-xL) was < 0.1 nM.
In the case of `COCC1(Cn2ncc(-c3ccc(N4CCc5cccc(C(=O)Nc6nc7ccccc7s6)c5C4)nc3C(=O)O)c2C)CCCCC1` [Example 144, 6-[8-(1,3-benzothiazol-2-ylcarbamoyl)-3,4-dihydroisoquinolin-2(1H)-yl]-3-(1-{[1-(methoxymethyl)cyclohexyl]methyl}-5-methyl-1H-pyrazol-4-yl)pyridine-2-carboxylic acid], the EC50 ([1]; Mus musculus) is reported as 213 nM and the Ki (GST-Bcl-xL) is reported as < 0.1 nM.
`Cc1c(-c2ccc(N3CCc4cccc(C(=O)Nc5nc6ccccc6s5)c4C3)nc2C(=O)O)cnn1CC1(N2CCOCC2)CCCC(C)(C)C1` (stereo not drawn) [Example 145, 6-[8-(1,3-benzothiazol-2-ylcarbamoyl)-3,4-dihydroisoquinolin-2(1H)-yl]-3-(1-{[3,3-dimethyl-1-(morpholin-4-yl)cyclohexyl]methyl}-5-methyl-1H-pyrazol-4-yl)pyridine-2-carboxylic acid] was tested, and the EC50 ([1]; Mus musculus) was 0.2 nM and the Ki (GST-Bcl-xL) was < 0.1 nM.
In the case of `COCCC1(Cn2ncc(-c3ccc(N4CCc5cccc(C(=O)Nc6nc7ccccc7s6)c5C4)nc3C(=O)O)c2C)CCCC(C)(C)C1` (stereo not drawn) [Example 146, 6-[8-(1,3-benzothiazol-2-ylcarbamoyl)-3,4-dihydroisoquinolin-2(1H)-yl]-3-(1-{[1-(2-methoxyethyl)-3,3-dimethylcyclohexyl]methyl}-5-methyl-1H-pyrazol-4-yl)pyridine-2-carboxylic acid], the EC50 ([1]; Mus musculus) is reported as 11 nM and the Ki (GST-Bcl-xL) is reported as < 0.1 nM.
`COCCCC1(Cn2ncc(-c3ccc(N4CCc5cccc(C(=O)Nc6nc7ccccc7s6)c5C4)nc3C(=O)O)c2C)CCCCCC1` [Example 147, 6-[8-(1,3-benzothiazol-2-ylcarbamoyl)-3,4-dihydroisoquinolin-2(1H)-yl]-3-(1-{[1-(3-methoxypropyl)cycloheptyl]methyl}-5-methyl-1H-pyrazol-4-yl)pyridine-2-carboxylic acid] was tested, and the EC50 [1] was 1 nM and the Ki (GST-Bcl-xL) was < 0.1 nM.
In the case of `COCCC1(Cn2ncc(-c3ccc(N4CCc5cccc(C(=O)Nc6nc7ccccc7s6)c5C4)nc3C(=O)NS(C)(=O)=O)c2C)CCCCCC1` [Example 148, N-(1,3-benzothiazol-2-yl)-2-{5-(1-{[1-(2-methoxyethyl)cycloheptyl]methyl}-5-methyl-1H-pyrazol-4-yl)-6-[(methylsulfonyl)carbamoyl]pyridin-2-yl}-1,2,3,4-tetrahydroisoquinoline-8-carboxamide], the EC50 ([1]; Mus musculus) is reported as 13 nM and the Ki (GST-Bcl-xL) is reported as < 0.1 nM.
In the case of `COCCOC1(Cn2ncc(-c3ccc(N4CCc5cccc(C(=O)Nc6nc7ccccc7s6)c5C4)nc3C(=O)O)c2C)CCCCCC1` [Example 151, 6-[8-(1,3-benzothiazol-2-ylcarbamoyl)-3,4-dihydroisoquinolin-2(1H)-yl]-3-(1-{[1-(2-methoxyethoxy)cycloheptyl]methyl}-5-methyl-1H-pyrazol-4-yl)pyridine-2-carboxylic acid], the EC50 ([1]; Mus musculus) is reported as 0.6 nM and the Ki (GST-Bcl-xL) is reported as < 0.1 nM.
